Assay results reported in paper PMC10225205 (Cancer Medicine, 2023).

Assays:
[1] = tested on: FGF23; assay: Plasma FGF23 concentration (Meso Scale Discovery assay); type: in vivo, human
Method: Plasma samples for pharmacodynamic assessments were collected predose on Days 1, 14, and 15 of Cycle 1 and any time on Day 1 (±3 days) of the subsequent cycles. […] Baseline FGF23 concentrations were assessed in plasma samples collected on Days 1 and 15 of Cycle 1 using a commercially available assay (Meso Scale Discovery). […] Inhibition of FGFR2 was assessed using an ex vivo assay that measured phosphorylated FGFR2α concentration following exposure of FGFR2‐amplified gastric cancer cells (KATOIII) to patient plasma.

[2] = tested on: advanced solid tumors; assay: FIGHT-102 efficacy, investigator-assessed RECIST 1.1; type: in vivo, human; design: key to Best overall response: PR, partial response; SD, stable disease; PD, progressive disease; NE, not evaluable
Method: Efficacy assessments occurred at screening (baseline scan) and on Day 15 of every third cycle with a ±2‐day window. Tumor status was assessed by the investigator using appropriate disease‐specific techniques. For solid tumors, the Response Evaluation Criteria in Solid Tumors (RECIST) 1.1 criteria were used,[19] and the recommended method for measuring tumor burden was computed tomography scan. Alternative modalities compatible with RECIST 1.1 could be used at the investigator's discretion provided they were used consistently throughout the study.
Both the efficacy and the safety population included all patients who received at least 1 dose of study drug. The PK/pharmacodynamic population included all patients who received at least one dose of study drug and provided at least one postdose plasma sample for PK/pharmacodynamic measurement. No comparisons are made between patients or against historical controls; only comparisons to pretreatment conditions were made.

[3] = Part 1, 13.5 mg ID, breast cancer, local no alteration detected
[4] = Part 1, 13.5 mg ID, cholangiocarcinoma, central FGF1 amp, FGFR2 amp
[5] = Part 1, 13.5 mg ID, other (intrahepatic cholangiocarcinoma), central no alteration detected
[6] = Part 1, 13.5 mg ID, other (lower bile duct cancer), central FGF6 mutation (p.S143N)
[7] = Part 1, 18 mg ID, neuroendocrine cancer, local FGF6/23 amp
[8] = Part 1, 18 mg ID, other (intrahepatic cholangiocarcinoma), not tested
[9] = Part 2, 13.5 mg CD, breast cancer, local FGFR1 amp, FGFR3 mutation
[10] = Part 2, 13.5 mg CD, colorectal cancer, central FGFR1 amp
[11] = Part 2, 13.5 mg CD, gallbladder cancer, central FGF3/4/19 amp
[12] = Part 2, 13.5 mg CD, other (prostate cancer), central FGFR1 amp
[13] = Part 2, 13.5 mg CD, other (rectal cancer), central FGFR1 amp
[14] = Part 2, 13.5 mg CD, other (uterine cervix carcinoma), central FGFR2 amp
[15] = Part 2, 13.5 mg CD, urothelial tract/bladder cancer (bladder cancer), central FGF3/4/19 amp, FGFR3 alteration
[16] = Part 2, 13.5 mg CD, urothelial tract/bladder cancer (renal pelvis cancer), central FGF3/4/19 amp
[17] = Part 2, 13.5 mg ID, breast cancer, central FGFR1 amp

Question: Which results are given for `CCN1C(=O)N(c2c(F)c(OC)cc(OC)c2F)Cc2cnc3[nH]c(CN4CCOCC4)cc3c21` [Pemigatinib]?
Answer: Mean increase of plasma FGF23 ([1]; 9 mg): 2.6 fold; Mean increase of plasma FGF23 ([1]; 13.5 mg): 2.9 fold; Rise of median FGF23 concentration from baseline ([1]; 13.5 mg QD, first 2 weeks of treatment): slightly more than twofold; Mean increase of plasma FGF23 ([1]; 18 mg): 3.9 fold; Patients with elevated FGF23 concentration at Day 15 of Cycle 1 ([1]; 37/41 patients, all doses): 90%; Mean FGF23 concentration ([1]; C1D15, all doses, baseline 198 ± 29): 464 ± 49 pg/mL; Best overall response of complete response or PR ([2]; Part 1): no patient; Median best percentage change from baseline in target lesion size ([2]; Part 1): −2.6%; Best overall response stable disease ([2]; Part 1, 7 patients): 50.0%; Best overall response ([2]; Part 1, 9 mg ID, gastric cancer): SD; Best change in sum of target lesion diameters ([2]; Part 1, 9 mg ID, gastric cancer, central and local not tested): –13.3%; Best overall response ([2]; Part 1, 9 mg ID, other (epithelioid hemangioendothelioma)): SD; Best change in sum of target lesion diameters ([2]; Part 1, 9 mg ID, other (epithelioid hemangioendothelioma), central and local not tested): –12.6%; Best overall response ([2]; Part 1, 9 mg ID, other (medulloblastoma), local no alteration detected): PD; Best change in sum of target lesion diameters [2, 3]: 28.1%; Best overall response [2, 3]: PD; Best change in sum of target lesion diameters [2, 4]: –8.5%; Best overall response [2, 4]: SD; Best overall response ([2]; Part 1, 13.5 mg ID, colorectal cancer, FGFR1 amp): PD; Best change in sum of target lesion diameters ([2]; Part 1, 13.5 mg ID, colorectal cancer, central and local FGFR1 amp): –21.1%; Best overall response ([2]; Part 1, 13.5 mg ID, lung cancer (NSCLC)): SD; Best change in sum of target lesion diameters ([2]; Part 1, 13.5 mg ID, lung cancer (NSCLC), not tested): –29.0%; Best change in sum of target lesion diameters [2, 5]: 4.4%; Best overall response [2, 5]: SD; Best change in sum of target lesion diameters [2, 6]: –5.1%; Best overall response [2, 6]: SD; Best change in sum of target lesion diameters [2, 7]: 37.5%; Best overall response [2, 7]: PD; Best change in sum of target lesion diameters ([2]; Part 1, 18 mg ID, other (intrahepatic cholangiocarcinoma), central none, local FGFR2 fusion): 0%; Best overall response ([2]; Part 1, 18 mg ID, other (intrahepatic cholangiocarcinoma), local FGFR2 fusion): SD; Best change in sum of target lesion diameters [2, 8]: 16.7%; Best overall response [2, 8]: PD; Best overall response ([2]; Part 1, 18 mg ID, other (pancreatic head cancer)): PD; Best change in sum of target lesion diameters ([2]; Part 1, 18 mg ID, other (pancreatic head cancer), local no alteration detected): 1.0%; Median of best percentage change from baseline in target lesion size ([2]; Part 2): 15.2%; Patients achieving PR ([2]; Part 2, 13.5 mg CD): 4 n; Patients achieving PR ([2]; Part 2, 13.5 mg ID): 1 n; Partial response ([2]; Part 2, 5 patients): 16.7%; Stable disease ([2]; Part 2, 6 patients): 20%; Best change in sum of target lesion diameters [2, 9]: 6.4%; Best overall response [2, 9]: NE; Best overall response ([2]; Part 2, 13.5 mg CD, breast cancer, local FGFR2 amp (best change –26.2%)): SD; Best overall response ([2]; Part 2, 13.5 mg CD, breast cancer, local FGFR2 amp (best change –44.4%)): PR; Best change in sum of target lesion diameters ([2]; Part 2, 13.5 mg CD, breast cancer, local FGFR2 amp (patient with PR)): –44.4%; Best change in sum of target lesion diameters ([2]; Part 2, 13.5 mg CD, breast cancer, local FGFR2 amp (patient with SD)): –26.2%; Best change in sum of target lesion diameters ([2]; Part 2, 13.5 mg CD, cholangiocarcinoma, central none, local FGFR2 translocation): –30.6%; Best overall response ([2]; Part 2, 13.5 mg CD, cholangiocarcinoma, local FGFR2 translocation): PR; Best change in sum of target lesion diameters [2, 10]: 26.5%; Best overall response [2, 10]: PD; Best change in sum of target lesion diameters ([2]; Part 2, 13.5 mg CD, colorectal cancer, central none, local FGF19 amp): 41.0%; Best overall response ([2]; Part 2, 13.5 mg CD, colorectal cancer, local FGF19 amp): PD; Best overall response ([2]; Part 2, 13.5 mg CD, esophageal cancer, FGFR3 translocation: fusion): SD; Best change in sum of target lesion diameters ([2]; Part 2, 13.5 mg CD, esophageal cancer, central and local FGFR3 translocation: fusion): –4.3%; Best change in sum of target lesion diameters [2, 11]: –43.8%; Best overall response [2, 11]: PR; Best change in sum of target lesion diameters [2, 12]: 15.2%; Best overall response [2, 12]: PD; Best change in sum of target lesion diameters [2, 13]: 0.0%; Best overall response [2, 13]: SD; Best change in sum of target lesion diameters [2, 14]: 22.7%; Best overall response [2, 14]: PD; Best change in sum of target lesion diameters [2, 15]: –37.2%; Best overall response [2, 15]: PR; Best change in sum of target lesion diameters [2, 16]: 12.1%; Best overall response [2, 16]: PD; Best change in sum of target lesion diameters [2, 17]: 18.1%; Best overall response [2, 17]: PD
